This is an account of results in ChEMBL document CHEMBL1142712, “Identification of small molecule chemical inhibitors of the collagen-specific chaperone Hsp47” (J Med Chem, 2005).

The target of this experiment is T1, Serpin H1 (Homo sapiens, UniProt P50454).
T1 sequence (P50454 whole entry): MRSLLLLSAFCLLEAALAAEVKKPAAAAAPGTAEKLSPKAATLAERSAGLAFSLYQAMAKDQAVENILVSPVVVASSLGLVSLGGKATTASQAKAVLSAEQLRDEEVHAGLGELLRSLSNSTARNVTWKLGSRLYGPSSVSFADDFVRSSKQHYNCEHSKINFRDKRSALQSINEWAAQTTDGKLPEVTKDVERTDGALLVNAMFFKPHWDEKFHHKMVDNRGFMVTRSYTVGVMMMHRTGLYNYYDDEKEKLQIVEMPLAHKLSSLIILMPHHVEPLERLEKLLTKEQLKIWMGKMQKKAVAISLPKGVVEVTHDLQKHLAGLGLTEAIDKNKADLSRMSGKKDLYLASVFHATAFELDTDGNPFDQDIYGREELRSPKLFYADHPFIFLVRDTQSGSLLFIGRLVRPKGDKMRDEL
Kind of experiment: Inhibitory concentration against Hsp47 collagen chaperone in turbidity assay.
The term IC50 denotes the concentration at which inhibition is half-maximal. Low values mean higher potency, high ones lower potency. Compound `COc1ccc(C(C[N+](=O)[O-])Sc2ccc(N)cc2)cc1` (centres undefined) yielded a 50% inhibitory concentration (IC50) of 26.6 µM.

The compound `Cc1cc(C(=O)CSc2nc(O)c(C#N)c(-c3cccs3)n2)ccc1Cl` gave an IC50 of 6.3 µM.

`COC(=O)c1cc(Cl)cc2c1N[S+]([O-])S2` (centres undefined): the concentration for half-maximal inhibition (IC50) stood at 3.1 µM. The same measure for `Nc1ccc(SC(C[N+](=O)[O-])c2ccc(F)cc2)cc1` (centres undefined): 26.6 µM.
